Results: US7566733B2, “Benzimidazole derivatives useful as selective androgen receptor modulators (sarms)” (priority 2004, dated 2009)

tested on: castrated male Sprague Dawley rats; test: Ventral Prostate and Seminal Vesicle Weight In Vivo Assay; settings: inhibition of testosterone-enhanced prostate weight; immature castrated rats, once daily for five days, usually orally 40 mg/kg, with testosterone propionate 2 mg/kg s.c. Note: key: active: the non weight adjusted prostate weight was ≦40 mg or the % Inhibition prostate weight, body weight adjusted was ≧40%@2 mg/day dosage; inactive: did not meet the specified criteria defined above.
Experimental: Ventral Prostate and Seminal Vesicle Weight In Vivo Assay
Immature (approximately 50 g) castrated male Sprague Dawley rats (Charles River) were treated once daily for five days with test compound (usually given orally at 40 mg/kg in a volume of 0.3 mL, in 30% cyclodextrin or 0.5% methylcellulose vehicle) and with testosterone propionate (given subcutaneously by injection at the nape of the neck at 2 mg/kg, in a volume of 0.1 mL in sesame oil). On the sixth day, the rats were euthanized by asphyxiation in carbon dioxide. Ventral prosatates and seminal vesicles were removed and their wet weights determined. Test compound activity was determined as the percent inhibition of testosterone-enhanced tissue weights, with a vehicle-treated control group set to zero percent and a testosterone alone-treated control group set to 100%.
Representative compounds of the present invention were tested according to the procedure described, with results as listed in Table 7 below. A test compound is listed as “active” if the non weight adjusted prostate weight was ≦40 mg or the % Inhibition prostate weight, body weight adjusted was ≧40%@2 mg/day dosage. ID50's, if determined, of ≦15 mg/day also indicated an “active” compound.

| Compound | Activity |
| --- | --- |
| OC(c1nc2cc(Cl)c(Cl)cc2[nH]1)C(F)(F)F (racemic) [Compound 59, 1-(5,6-DiChloro-1H-benzoimidazol-2-yl-)2,2,2-trifluoro-ethanol] | active |
| ON=C(c1nc2cc(Cl)c(Cl)cc2[nH]1)C(F)(F)F (racemic) [Compound 141, 1-(5,6-Dichloro-1H-benzoimidazol-2-yl)-2,2,2-trifluoro-ethanone Oxime] | active |
| CC(O)(Cc1cccc(F)c1)c1nc2cc(Cl)c(Cl)cc2[nH]1 (stereo not shown) [Compound 3] | inactive |
| CC(O)(CO)c1nc2cc(Cl)c(Cl)cc2[nH]1 (stereo not shown) [Compound 4] | active |
| Cn1c(C(C)(O)CC#N)nc2cc(Cl)c(Cl)cc21 (stereo not shown) [Compound 8] | active |
| Cn1c(C(C)(O)C(F)(F)F)nc2cc(Cl)c(Cl)cc21 (stereo not shown) [Compound 9] | active |
| CCOCC(C)(O)c1nc2cc(Cl)c(Cl)cc2n1C (stereo not shown) [Compound 10] | inactive |
| CCn1c(C(C)(O)C(F)(F)F)nc2cc(Cl)c(Cl)cc21 (stereo not shown) [Compound 13] | active |
| CCCn1c(C(C)(O)C(F)(F)F)nc2cc(Cl)c(Cl)cc21 (stereo not shown) [Compound 14] | active |
| CCCCn1c(C(C)(O)C(F)(F)F)nc2cc(Cl)c(Cl)cc21 (stereo not shown) [Compound 15] | active |
| CCn1c(C(C)(O)CC#N)nc2cc(Cl)c(Cl)cc21 (stereo not shown) [Compound 16] | active |
| CCn1c(C(C)(O)COC)nc2cc(Cl)c(Cl)cc21 (stereo not shown) [Compound 17] | inactive |
| Cn1c(C(C)(O)CCl)nc2cc(Cl)c(Cl)cc21 (stereo not shown) [Compound 18, 1-Chloro-2-(5,6-dichloro-1-methyl-1H-benzoimidazol-2-yl)-propan-2-ol] | active |
| CC(O)(c1nc2cc(Cl)c(Cl)cc2[nH]1)C(F)(F)F (stereo not shown) [Compound 20] | inactive |
| CCSCC(C)(O)c1nc2cc(Cl)c(Cl)cc2n1C (stereo not shown) [Compound 25, 2-(5,6-Dichloro-1-methyl-1H-benzoimidazol-2-yl)-1-ethylsulfanyl-propan-2-ol] | active |
| CC(O)(Cc1nc2cc(Cl)c(Cl)cc2[nH]1)C(F)(F)F (stereo not shown) [Compound 27, 3-(5,6-Dichloro-2-1H-benzoimidazol-2-yl)-1,1,1-trifluoro-2-methyl-propan-2-ol] | active |
| COC(C)(CC#N)c1nc2cc(Cl)c(Cl)cc2n1C (stereo not shown) [Compound 28] | active |
| CCSCC(C)(O)c1nc2cc(Cl)c(Cl)cc2n1CC (stereo not shown) [Compound 31, 2-(5,6-Dichloro-1-ethyl-1H-benzoimidazol-2-yl)-1-ethylsulfanyl-propan-2-ol] | active |
| Cn1c(CC(C)(O)C(F)(F)F)nc2cc(Cl)c(Cl)cc21 (stereo not shown) [Compound 33] | active |
| CCn1c(CC(C)(O)C(F)(F)F)nc2cc(Cl)c(Cl)cc21 (stereo not shown) [Compound 37] | active |
| FC(F)(F)Cc1nc2cc(Cl)c(Cl)cc2[nH]1 [Compound 41, 5,6-Dichloro-2-(2,2,2-trifluoro-ethyl)-1H-benzoimidazole] | active |
| CCn1c(C(C)(O)CSCC(F)(F)F)nc2cc(Cl)c(Cl)cc21 (stereo not shown) [Compound 44, 2-(5,6-Dichloro-1-ethyl-1H-benzoimidazol-2-yl)-1-(2,2,2-trifluoro-ethylsulfanyl)-propan-2-ol] | inactive |
| Cn1c(C(C)(O)CS(=O)(=O)Cc2ccccc2)nc2cc(Cl)c(Cl)cc21 (stereo not shown) [Compound 45, 2-(5,6-Dichloro-1-methyl-1H-benzoimidazol-2-yl)-1-phenylmethanesulfonyl-propan-2-ol] | inactive |
| CCn1c(C(C)(O)CS(=O)(=O)CC)nc2cc(Cl)c(Cl)cc21 (stereo not shown) [Compound 48, 2-(5,6-Dichloro-1-ethyl-1H-benzoimidazol-2-yl)-1-ethanesulfonyl-propan-2-ol] | active |
| CCn1c(C(C)(O)CS(=O)(=O)CC(F)(F)F)nc2cc(Cl)c(Cl)cc21 (stereo not shown) [Compound 49, 2-(5,6-Dichloro-1-ethyl-1H-benzoimidazol-2-yl)-1-(2,2,2-trifluoro-ethanesulfonyl)-propan-2-ol] | inactive |
